Source: publication PMC4363860 (Scientific Reports, 2015)
Read-outs that look alike come from different tables or passages of the source.

Columns and labels:
[1] = system: K. pneumoniae 1287; assay: Chemo-sensitization (Suppl. Table S1)
[2] = system: E. coli 16329; assay: Chemo-sensitization (Suppl. Table S1)
[3] = system: S. Typhimurium 14028; assay: Chemo-sensitization (Suppl. Table S1); conditions: for MIC: Salmonella enterica, TYPHIMURIUM
[4] = system: E. coli; assay: MIC and reciprocal sensitization (Fig. 2a,b; Suppl. Figs S2, S3); format: cell-based, Escherichia coli
[5] = system: E. coli 14182; assay: Chemo-sensitization (Suppl. Table S1)
[6] = system: K. pneumoniae; assay: Efficacy, peritonitis-sepsis model in neutropenic mice; format: in vivo, Klebsiella pneumoniae; conditions: IP K. pneumoniae 3 × 10^7 CFU, rifampin oral 0.45 mg/mouse or OAK SC 0.3 mg/mouse, 2 experiments, 10 mice/group, vehicle 20 ± 10%
Method: Animal studies were performed using male ICR mice (weight range, 23 ± 2 g) obtained from Harlan Laboratories (Rehovot, Israel). Procedures, care and handling of animals were reviewed and approved by Technion Animal Care and Use Committee.
Mice were rendered neutropenic by intraperitoneal (IP) injection of cyclophosphamide (150 and 100 mg/Kg on days 0 and 3, respectively). The procedure was confirmed to result in severe neutropenia by day 4, at which time infection was induced. The peritonitis-sepsis model was used whereby infection was obtained after IP injection of a logarithmic-phase culture of K. pneumoniae (3 × 10^7 CFU/mice in 0.3 ml PBS). […] Mice survival was monitored for up to 7 days post-treatment. Survival data were obtained from 2 independent experiments (n = 10 mice/group/experiment). Statistical analysis was performed using a paired t test were α equals 0.05.

[7] = system: Klebsiella; assay: MIC (Suppl. Figs S2, S3); format: cell-based
[8] = system: E. coli 14384; assay: Chemo-sensitization (Suppl. Table S1); conditions: for MIC: Escherichia coli, 14384, read-out: MIC of rifampin in presence of C10KKc12K, E. coli 14384
[9] = system: S. stanley 7308; assay: Chemo-sensitization (Suppl. Table S1); format: cell-based, Salmonella; conditions: for MIC: Salmonella enterica, 7308, read-out: MIC of rifampin in presence of C10KKc12K, S. stanley 7308
[10] = system: E. coli 16327; assay: Chemo-sensitization (Suppl. Table S1)
[11] = system: E. coli 35218; assay: Chemo-sensitization (Suppl. Table S1); conditions: for MIC: Escherichia coli, 35218, read-out: MIC of rifampin in presence of C10KKc12K, E. coli 35218
[12] = Pharmacokinetic study, plasma concentrations by LC-MS; format: in vivo; conditions: mice, oral 20 mg/Kg, N = 2 mice/time point, mean ± s.d.
Method: Drugs blood concentrations were determined by LC-MS using calibrated curves essentially as described[5][9]. […] At specified time intervals mice were euthanized (CO2 asphyxiation) and blood samples collected from vena cava (N = 2 mice/time point). For analysis, samples were centrifuged (2 min, 6000 × g), 200 μl plasma were mixed with 0.5 ml extraction buffer (50% acetonitrile (ACN): 50% methanol) incubated (30 min on plate shaker at 200 rpm, RT), centrifuged (2 min, 14000 × g) and 300 μl supernatant diluted twofold in DDW and analyzed by LC-MS (5 μl injected to Waters Xevo G2 Tof/ACQUITY UPLC H-Class system). Flow rate, 0.5 ml/min. Run time, 5 min. Mobile phase, ACN/DDW combination containing 0.1% formic acid using an ACQUITY UPLC BEH column (C18 1.7 μm) and eluted with a 0–90% ACN gradient. Quantification was by MS detection in positive ionization mode using an identical procedure that was performed in mouse whole blood in order to establish standard calibration curves.

With CO[C@H]1/C=C/O[C@@]2(C)Oc3c(C)c(O)c4c(O)c(c(/C=N/N5CCN(C)CC5)c(O)c4c3C2=O)NC(=O)/C(C)=C\C=C\[C@H](C)[C@H](O)[C@@H](C)[C@@H](O)[C@@H](C)[C@H](OC(C)=O)[C@@H]1C [rifampin] the “SF, sensitization factor, rifampin with C12(ω7)KKc12K” value (shortened to “SF … with C12(ω7)KKc12K”) ([1]; K. pneumoniae 1287) was 5333, the MIC ([1]; Klebsiella pneumoniae, 1287, read-out: MIC of rifampin in presence of C10KKc12K, K. pneumoniae 1287, OAK 1.25 µg/ml) was 8 µg/mL and the MIC ([1]; Klebsiella pneumoniae, 1287, read-out: MIC of rifampin in presence of C10KKc12K, K. pneumoniae 1287, OAK 2.5 µg/ml) was 0.031 µg/mL. For the same molecule, the MIC ([1]; Klebsiella pneumoniae, 1287, read-out: MIC of rifampin in presence of C12(ω7)KKc12K, K. pneumoniae 1287, OAK 1.25 µg/ml) was 4 µg/mL, the MIC ([1]; Klebsiella pneumoniae, 1287, read-out: MIC of rifampin in presence of C12(ω7)KKc12K, K. pneumoniae 1287, OAK 2.5 µg/ml) was 0.1 µg/mL and the MIC ([1]; Klebsiella pneumoniae, 1287, read-out: MIC of rifampin in presence of C12(ω7)KKc12K, K. pneumoniae 1287, OAK 5 µg/ml) was 0.006 µg/mL. The “SF, sensitization factor, rifampin with C10KKc12K” value (shortened to “SF … with C10KKc12K”) ([2]; E. coli 16329) was 2000, the “SF … with C12(ω7)KKc12K” value ([2]; E. coli 16329) was 2000 and the MIC ([2]; Escherichia coli, 16329, read-out: MIC of rifampin in presence of C10KKc12K, E. coli 16329, OAK 0 µg/ml) was 16 µg/mL. For the same molecule, the MIC ([2]; Escherichia coli, 16329, read-out: MIC of rifampin in presence of C10KKc12K, E. coli 16329, OAK 1.25 µg/ml) was 0.5 µg/mL, the MIC ([2]; Escherichia coli, 16329, read-out: MIC of rifampin in presence of C10KKc12K, E. coli 16329, OAK 5 µg/ml) was 0.008 µg/mL and the MIC ([2]; Escherichia coli, 16329, read-out: MIC of rifampin in presence of C12(ω7)KKc12K, E. coli 16329, OAK 0 µg/ml) was 16 µg/mL. For the same molecule, the MIC ([2]; Escherichia coli, 16329, read-out: MIC of rifampin in presence of C12(ω7)KKc12K, E. coli 16329, OAK 1.25 µg/ml) was 8 µg/mL, the MIC ([2]; Escherichia coli, 16329, read-out: MIC of rifampin in presence of C12(ω7)KKc12K, E. coli 16329, OAK 2.5 µg/ml) was 0.031 µg/mL and the MIC ([2]; Escherichia coli, 16329, read-out: MIC of rifampin in presence of C12(ω7)KKc12K, E. coli 16329, OAK 5 µg/ml) was 0.008 µg/mL. The “SF … with C10KKc12K” value ([3]; S. Typhimurium 14028) was 2000, the “SF … with C12(ω7)KKc12K” value ([3]; S. Typhimurium 14028) was 2667 and the MIC ([3]; read-out: MIC of rifampin in presence of C10KKc12K, S. Typhimurium 14028, OAK 0 µg/ml) was 16 µg/mL. The MIC ([3]; read-out: MIC of rifampin in presence of C10KKc12K, S. Typhimurium 14028, OAK 1.25 µg/ml) was 8 µg/mL, the MIC ([3]; read-out: MIC of rifampin in presence of C10KKc12K, S. Typhimurium 14028, OAK 5 µg/ml) was 0.008 µg/mL and the MIC ([3]; read-out: MIC of rifampin in presence of C12(ω7)KKc12K, S. Typhimurium 14028, OAK 0 µg/ml) was 16 µg/mL. For the same molecule, the MIC ([3]; read-out: MIC of rifampin in presence of C12(ω7)KKc12K, S. Typhimurium 14028, OAK 1.25 µg/ml) was 8 µg/mL, the MIC ([3]; read-out: MIC of rifampin in presence of C12(ω7)KKc12K, S. Typhimurium 14028, OAK 2.5 µg/ml) was 0.016 µg/mL and the MIC ([3]; read-out: MIC of rifampin in presence of C12(ω7)KKc12K, S. Typhimurium 14028, OAK 5 µg/ml) was 0.006 µg/mL. The “standalone antibiotic MIC” value [4] was 16 µg/mL, the “SF … with C10KKc12K” value ([5]; E. coli 14182) was 516 and the “SF … with C12(ω7)KKc12K” value ([5]; E. coli 14182) was greater than 800. For the same molecule, the MIC ([5]; Escherichia coli, 14182, read-out: MIC of rifampin in presence of C10KKc12K, E. coli 14182, OAK 0 µg/ml) was 16 µg/mL, the MIC ([5]; Escherichia coli, 14182, read-out: MIC of rifampin in presence of C10KKc12K, E. coli 14182, OAK 1.25 µg/ml) was 4 µg/mL and the MIC ([5]; Escherichia coli, 14182, read-out: MIC of rifampin in presence of C10KKc12K, E. coli 14182, OAK 2.5 µg/ml) was 0.125 µg/mL. It also gave an MIC ([5]; Escherichia coli, 14182, read-out: MIC of rifampin in presence of C10KKc12K, E. coli 14182, OAK 5 µg/ml) of 0.031 µg/mL, an MIC ([5]; Escherichia coli, 14182, read-out: MIC of rifampin in presence of C12(ω7)KKc12K, E. coli 14182, OAK 0 µg/ml) of 8 µg/mL and an MIC ([5]; Escherichia coli, 14182, read-out: MIC of rifampin in presence of C12(ω7)KKc12K, E. coli 14182, OAK 1.25 µg/ml) of 8 µg/mL. The MIC ([5]; Escherichia coli, 14182, read-out: MIC of rifampin in presence of C12(ω7)KKc12K, E. coli 14182, OAK 2.5 µg/ml) was 0.031 µg/mL, the MIC ([5]; Escherichia coli, 14182, read-out: MIC of rifampin in presence of C12(ω7)KKc12K, E. coli 14182, OAK 5 µg/ml) was less than 0.01 µg/mL and the “survivors at day 7, single dose monotherapy” value [6] was 10%. For the same molecule, the “standalone antibiotic MIC” value [7] was 32 µg/mL, the “SF … with C10KKc12K” value ([8]; E. coli 14384) was 258 and the MIC ([8]; OAK 0 µg/ml) was 8 µg/mL. The MIC ([8]; OAK 1.25 µg/ml) was 0.5 µg/mL, the MIC ([8]; OAK 2.5 µg/ml) was 0.125 µg/mL and the MIC ([8]; OAK 5 µg/ml) was 0.031 µg/mL. The “SF … with C10KKc12K” value ([9]; S. stanley 7308) was 2000, the MIC ([9]; OAK 0 µg/ml) was 16 µg/mL and the MIC ([9]; OAK 1.25 µg/ml) was 16 µg/mL. For the same molecule, the MIC ([9]; OAK 2.5 µg/ml) was 0.125 µg/mL, the MIC ([9]; OAK 5 µg/ml) was 0.008 µg/mL and the “SF … with C10KKc12K” value ([10]; E. coli 16327) was 2000. For the same molecule, the “SF … with C12(ω7)KKc12K” value ([10]; E. coli 16327) was greater than 3200, the MIC ([10]; Escherichia coli, 16327, read-out: MIC of rifampin in presence of C10KKc12K, E. coli 16327, OAK 0 µg/ml) was 16 µg/mL and the MIC ([10]; Escherichia coli, 16327, read-out: MIC of rifampin in presence of C10KKc12K, E. coli 16327, OAK 1.25 µg/ml) was 0.5 µg/mL. It also gave an MIC ([10]; Escherichia coli, 16327, read-out: MIC of rifampin in presence of C10KKc12K, E. coli 16327, OAK 2.5 µg/ml) of 0.031 µg/mL, an MIC ([10]; Escherichia coli, 16327, read-out: MIC of rifampin in presence of C10KKc12K, E. coli 16327, OAK 5 µg/ml) of 0.008 µg/mL and an MIC ([10]; Escherichia coli, 16327, read-out: MIC of rifampin in presence of C12(ω7)KKc12K, E. coli 16327, OAK 0 µg/ml) of 16 to 32 µg/mL. It also gave an MIC ([10]; Escherichia coli, 16327, read-out: MIC of rifampin in presence of C12(ω7)KKc12K, E. coli 16327, OAK 1.25 µg/ml) of 8 µg/mL, an MIC ([10]; Escherichia coli, 16327, read-out: MIC of rifampin in presence of C12(ω7)KKc12K, E. coli 16327, OAK 2.5 µg/ml) of less than 0.01 µg/mL and an MIC ([10]; Escherichia coli, 16327, read-out: MIC of rifampin in presence of C12(ω7)KKc12K, E. coli 16327, OAK 5 µg/ml) of less than 0.01 µg/mL. The “SF … with C10KKc12K” value ([11]; E. coli 35218) was 258, the MIC ([11]; OAK 0 µg/ml) was 8 µg/mL and the MIC ([11]; OAK 1.25 µg/ml) was 0.5 µg/mL. The MIC ([11]; OAK 5 µg/ml) was 0.031 µg/mL and the “plasma concentration reached after oral administration” value [12] was 13260 ± 2250 ng/mL.
